{"source": "patent US7612096B2", "about": "“Methods for treatment, modification and management of radiculopathy using 1-oxo-2-(2,6-dioxopiperidin-3yl)-4-aminoisoindoline” (Celgene Corporation, priority 2004, dated 2009)", "key": {"[1]": {"test_system": "TNF-α production", "experiment": "Inhibition of TNF-α production following LPS-stimulation of human PBMC", "type": "cell-based", "conditions": "for IC50: human PBMC, LPS-stimulated, read-out: IC50 for inhibiting production of TNF-α following LPS-stimulation of PBMC", "text": "(§1) Inhibitions of TNF-α production following LPS-stimulation of human PBMC and human whole blood by 3-(4-amino-1-oxo-1,3-dihydro-isoindol-2-yl)-piperidine-2,6-dione, 4-(amino)-2-(2,6-dioxo-(3-piperidyl))-isoindoline-1,3-dione and thalidomide were investigated in vitro."}, "[2]": {"test_system": "Beagle dogs", "experiment": "Cardiovascular and respiratory function in anesthetized dogs", "type": "in vivo, dog", "conditions": "for cardiovascular and respiratory changes compared to the vehicle control group: anesthetized Beagle dogs, 2, 10 and 20 mg/kg, infusion through the jugular vein, all doses; for duration of the arterial blood pressure increase / change in arterial blood pressure / deviations in femoral blood flow, respiratory parameters, and Qtc interval: anesthetized Beagle dogs; for duration of the arterial blood pressure increase / change in arterial blood pressure: low dose; for change in arterial blood pressure: i.v. infusion, statistically significant, not seen at higher doses; for deviations in femoral blood flow, respiratory parameters, and Qtc interval: common to both control and treated groups", "text": "The effects of 3-(4-amino-1-oxo-1,3-dihydro-isoindol-2-yl)-piperidine-2,6-dione and 4-(amino)-2-(2,6-dioxo-(3-piperidyl))-isoindoline-1,3-dione on cardiovascular and respiratory function were investigated in anesthetized dogs. Two groups of Beagle dogs (2/sex/group) were used. One group received three doses of vehicle only and the other receives three ascending doses of 3-(4-amino-1-oxo-1,3-dihydro-isoindol-2-yl)-piperidine-2,6-dione or 4-(amino)-2-(2,6-dioxo-(3-piperidyl))-isoindoline-1,3-dione (2, 10, and 20 mg/kg). In all cases, doses of 3-(4-amino-1-oxo-1,3-dihydro-isoindol-2-yl)-piperidine-2,6-dione, 4-(amino)-2-(2,6-dioxo-(3-piperidyl))-isoindoline-1,3-dione or vehicle were successively administered via infusion through the jugular vein separated by intervals of at least 30 minutes."}, "[3]": {"test_system": "TNF-α production", "experiment": "Inhibition of TNF-α production following LPS-stimulation of human whole blood", "type": "cell-based", "conditions": "LPS-stimulated, read-out: IC50 for inhibiting production of TNF-α following LPS-stimulation of human whole blood", "text": "as §1"}, "[4]": {"test_system": "IL6 production", "experiment": "LPS-stimulated production of IL6 by PBMC", "type": "cell-based"}, "[5]": {"test_system": "IL10 production", "experiment": "LPS-stimulated production of IL10 by PBMC", "type": "cell-based"}, "[6]": {"test_system": "IL1β production", "experiment": "LPS-stimulated production of IL1β by PBMC", "type": "cell-based"}, "[7]": {"test_system": "CRPS patients", "experiment": "Clinical study in patients with upper extremity CRPS", "type": "in vivo, human", "conditions": "10 mg continuous oral daily dose", "method": "Immunomodulatory compounds such as 4-(amino)-2-(2,6-dioxo(3-piperidyl))-isoindoline-1,3-dione and 3-(4-amino-1-oxo-1,3-dihydro-isoindol-2-yl)-piperidine-2,6-dione are administered in an amount of 0.1 to 25 mg per day to patients with pain syndromes for three to six months. A baseline evaluation is performed for the effect of the drug treatment on pain intensity, impact of pain on activities of daily living, and consumption of other pain medications.\nIn a specific embodiment, clinical studies are performed in pain patients who have upper extremity CRPS that has not responded to conventional physical therapy and has been present for at least one year. In the early course of their diseases, patients have clear evidence of autonomic dysfunction with formal autonomic testing (Quantitative sudomotor axon reflex test (QSART), resting sweat output, and thermography). […] Responses are assessed using standard pain scales, e.g., Numeric Pain Scale Assessment (VAS) for pain, quality of life using the McGill Index and objective signs in clinical examination such as a visible reduction of swelling, sweating, discolorations in skin color, temperature changes, changes in skin, hair and nail growth, and fine motor movements. […]"}}, "data": [{"smiles": "Nc1cccc2c1CN(C1CCC(=O)NC1=O)C2=O", "note": "(stereo not drawn) [3-(4-amino-1-oxo-1,3-dihydro-isoindol-2-yl)-piperidine-2,6-dione]", "values": [{"measurement": "effect on LPS-stimulated production of TNF-α by PBMC", "setting": "[1]", "value": "dose-dependent inhibition"}, {"measurement": "IC50", "setting": "[1]", "value": "~100", "unit": "nM"}, {"measurement": "cardiovascular and respiratory changes compared to the vehicle control group", "setting": "[2]", "value": "minimal"}, {"measurement": "duration of the arterial blood pressure increase", "setting": "[2]", "value": "approximately 15 minutes"}, {"measurement": "change in arterial blood pressure", "setting": "[2]", "value": "small increase"}, {"measurement": "deviations in femoral blood flow, respiratory parameters, and Qtc interval", "setting": "[2]", "value": "not considered treatment-related"}, {"measurement": "IC50", "setting": "[3]", "value": "~480", "unit": "nM"}, {"measurement": "effect on LPS-stimulated production of IL6 by PBMC", "setting": "[4]", "value": "dose-dependent inhibition"}, {"measurement": "effect on production of the anti-inflammatory cytokine IL10", "setting": "[5]", "value": "increased production"}, {"measurement": "effect on LPS-stimulated production of IL1β by PBMC", "setting": "[6]", "value": "dose-dependent inhibition"}, {"measurement": "tolerability", "setting": "[7]", "value": "well-tolerated"}]}, {"smiles": "Nc1cccc2c1C(=O)N(C1CCC(=O)NC1=O)C2=O", "note": "(stereo not drawn) [4-(Amino)-2-(2,6-dioxo(3-piperidyl))-isoindoline-1,3-dione]", "values": [{"measurement": "effect on LPS-stimulated production of TNF-α by PBMC", "setting": "[1]", "value": "dose-dependent inhibition"}, {"measurement": "IC50", "setting": "[1]", "value": "~24", "unit": "nM"}, {"measurement": "cardiovascular and respiratory changes compared to the vehicle control group", "setting": "[2]", "value": "minimal"}, {"measurement": "duration of the arterial blood pressure increase", "setting": "[2]", "value": "approximately 15 minutes"}, {"measurement": "change in arterial blood pressure", "setting": "[2]", "value": "small increase"}, {"measurement": "deviations in femoral blood flow, respiratory parameters, and Qtc interval", "setting": "[2]", "value": "not considered treatment-related"}, {"measurement": "IC50", "setting": "[3]", "value": "~25", "unit": "nM"}, {"measurement": "effect on LPS-stimulated production of IL6 by PBMC", "setting": "[4]", "value": "dose-dependent inhibition"}, {"measurement": "effect on production of the anti-inflammatory cytokine IL10", "setting": "[5]", "value": "increased production"}, {"measurement": "effect on LPS-stimulated production of IL1β by PBMC", "setting": "[6]", "value": "dose-dependent inhibition"}]}]}
